The record followed here is ChEMBL document CHEMBL1157281, “Antineoplastic agents. 400. Synthesis of the Indian Ocean marine sponge cyclic heptapeptide phakellistatin 2” (1999).

Converted amounts (≈) assume the structure as drawn. Residues, ends and D or L forms follow the SMILES beside them.

The subject of this assay is P388. The assay is described as follows: Growth inhibition of mouse P388 cells. It is filed as functional. To be noted: read-out: ED50 (the source's name).

For the compound `CC[C@H](C)[C@@H]1NC(=O)[C@@H]2CCCN2C(=O)[C@H](Cc2ccccc2)NC(=O)[C@@H]2CCCN2C(=O)[C@H](Cc2ccc(O)cc2)NC(=O)[C@@H]2CCCN2C(=O)[C@H]([C@@H](C)CC)NC1=O` [PHAKELLISTATIN 2] (cyclo(FPIIPYP)), the EC50 worked out at 0.34 µg/mL (≈ 0.411 µM).

In the case of `CC[C@H](C)[C@@H]1NC(=O)[C@@H]2CCCN2C(=O)[C@H](Cc2ccccc2)NC(=O)[C@@H]2CCCN2C(=O)[C@H](Cc2ccc(O)cc2)NC(=O)[C@@H]2CCCN2C(=O)[C@H]([C@@H](C)CC)NC1=O.Cl` [PHAKELLISTATIN 2 (SYNTHETIC)] (cyclo(FPIIPYP)), the EC50 was 24 µg/mL.
